Here are results for 2 compounds from patent US5159085A, “2-anilino phenylacetic acid derivatives as inhibitors of PLA2 and lipoxygenase” (American Home Products Corporation, priority 1991, dated 1992).

Read-outs that look alike come from different tables or passages of the source.

The subject of experiment [1] is LTB4 synthesis by rat glycogen-elicited polymorphonuclear leukocytes (lipoxygenase). The experiment in a line: Inhibition of LTB4 synthesis by rat glycogen-elicited polymorphonuclear leukocytes (PMN). The experiment is classed as cell-based, rat (female Wistar). To be noted: Rattus norvegicus, Leukocyte, A 23187 and exogenous AA. The source says:
This is especially true with respect to 5,12-diHETE, which is also denoted as LTB4 [see Ford-Hitchinson, J. Roy. Soc. Med., 74, 831 (1981)]. Compounds which inhibit the PLA2 -mediated release of arachidonic acid thereby effectively prevent the oxidation of arachidonic acid to the various leukotriene products via the lipoxygenase cascade. Accordingly, the specificity of action of PLA2 inhibitors can be determined by the activity of test compounds in this assay, which measures the ability of compounds to inhibit the synthesis of LTB4 by rat glycogen-elicited polymorphonuclear leukocytes (PMN) in the presence of exogenous substrate.
The assay is carried out as follows:
(§1) Rat polymorphonuclear leukocytes (PMNs) are obtained from female Wistar rats (150-200 g) which receive an injection of 6% glycogen (10 ml i.p.). Rats are sacrificed 18-24 hours post injection by CO2 asphyxiation and the elicited cells are harvested by peritoneal lavage using physiological saline (0.9% NaCl). The exudate is centrifuged at 400×g for 10 minutes. The supernatant fluid is discarded and the cell pellet is resuspended to a concentration of 2.0×10^7 cells/ml in HBSS containing Ca^++ and Mg^++ and 10 μM L-cysteine.
(§2) To 1 ml aliquots of cell suspension, test drugs or vehicle are added, then preincubated at 37° C. for 10 minutes. A 23187 (1 μM), [^3 H]-AA (3.0 μCi/ml) and unlabeled AA (1 μM) are then added and the samples are further incubated for 10 minutes. The reaction is terminated by centrifugation and pelleting cells. Supernatants are then analyzed by HPLC analysis on a 15 cm×4.6 mm ID supelcosil LC-18 (Supelco)(3M) column, using a two solvent system at a flow rate of 1.4 ml total flow as follows:
Gradient: (system is equillibrated with Solvent A)
(§3) Percent solvent changes are accomplished in a linear fashion.
(§4) Injections: 150 μl of each supernatant is injected directly onto column and ^3 H arachidonic acid metabolites are monitored using an on-line radioactivity detector (Ramona, IN/US, Fairfield, NJ).
(§5) Standards: 10^4 -2.0×10^4 dpm of eicosanoids of interest are injected in 90 μl EtOH cocktail.
(§6) Co-chromatography with standard [^3 H] leukotriene B4 (LTB4) in medium of stimulated PMN exposed to drug is compared to that found in medium of stimulated cells exposed to no drug, generating percent inhibition.
(§7) Results are expressed as percent inhibition at a given compound dose or as an IC50 value.

Experiment [2] concerns TxB2 synthesis (cyclooxygenase) by rat glycogen-elicited polymorphonuclear leukocytes. The experiment is described as follows: Inhibition of TxB2 synthesis by rat glycogen-elicited PMN (cyclooxygenase). In kind it is cell-based, rat (female Wistar). To be noted: read-out: IC50 (TxB2 synthesis). On the procedure: as §1, §2, §3, §4, §5, §6, §7
In this assay, the procedure of Example 19 is carried out as described. However, in order to determine cyclooxygenase activity, the samples are co-chromatographed with authentic reference [^3 H]-TxB2.
The results are calculated as in Example 19 and presented below: […]

Experiment [3] concerns Rat Peritonitis Fluid PLA2. The experiment is described as follows: In vitro isolated phospholipase A2 assay, rat peritonitis fluid PLA2. In kind it is biochemical.
The next experiment concerns Pancreatic Lipase PLA2. The experiment is described as follows: In vitro isolated phospholipase A2 assay, pancreatic lipase PLA2. In kind it is biochemical.
The target in another experiment is Bee Venom PLA2 (Apis mellifera, UniProt P00630). The experiment is described as follows: biochemical. To be noted: read-out: % Inhibition at a concentration of 10 μM, Bee Venom.
Chain of Bee Venom PLA2 (P00630 34-167 limits assumed): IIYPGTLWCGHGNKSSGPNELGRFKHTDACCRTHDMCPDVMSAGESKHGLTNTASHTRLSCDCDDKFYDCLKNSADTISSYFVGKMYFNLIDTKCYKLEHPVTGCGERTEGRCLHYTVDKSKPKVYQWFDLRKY
For another experiment, the system named is LTC4. The experiment in a line: In vivo murine zymosan peritonitis assay, LTC4 (lipoxygenase pathway). Details: species or system mouse (male CD-1). The method, then:
The compounds of the invention are evaluated for their ability to inhibit the lipoxygenase and/or cyclooxygenase pathways of arachidonic acid metabolism in the in vivo murine zymosan peritonitis assay.
(§8) This assay is carried out as follows:
Male CD-1 mice (8 weeks old) are placed in plastic boxes in groups of six. Animals are injected with 1 ml i.p. of either 1% zymosan in pyrogen free 0.9% saline or saline (unstimulated control). Compounds are dosed orally 1 hour prior to zymosan injection. Twenty minutes after zymosan injection, the mice are asphyxiated by CO2 inhalation and the peritoneal cavity is lavaged with 2 ml ice cold Hanks Balanced Salt Solution (HBSS) without CaCl2, MgSO4 ·7H2 O and MgCL2 ·6H2 O. Peritoneal lavage fluid from each mouse is removed by syringe and placed in 5 ml plastic test tubes put on ice and volume is noted. Preparation of samples for evaluation by ELISA is as follows: Samples are centrifuged at 800×g for 15 minutes; 1 ml of the supernatant is added to 8 ml ice cold methanol and kept at -70° C. overnight to precipitate protein; and samples are then centrifuged at 800×g for 15 minutes, followed by a drying procedure in a Savant speed vac concentrator. The samples are reconstituted with 1 ml ice cold ELISA buffer and stored at -70° C. until assayed. The assay for eicosanoids (LTC4 and 6-keto-PGF1α) is performed according to conventional ELISA procedures.
Compounds to be tested orally are suspended in 0.5% Tween 80. Compounds to be tested intraperitoneally are suspended in 0.5% methylcellulose in 0.9% saline.
The total metabolite level in lavage fluid/mouse is calculated and the significance is determined by a one-way analysis of variance with LSD comparisons to control (p≤0.05). Drug effects are expressed as a percent change from control values.

In a further experiment the test system is carrageenan paw edema. The experiment in a line: Rat carrageenan paw edema assay. The experiment is classed as in vivo, rat (male Sprague-Dawley). On the procedure:
The compounds of the invention are further tested in the rat carrageenan paw edema assay to determine their ability to inhibit the acute inflammatory response.
as §8
140-180 gm Male Sprague-Dawley rats, in groups of 6 animals are injected subcutaneously in the right paw with 0.1 ml of 1% carrageenan at zero time. Mercury plethysmographic readings (ml) of the paw are made at zero time and 3 hours later. Test compounds are suspended or dissolved in 0.5% methylcellulose and given perorally 1 hour prior to carrageenan administration.
The increase in paw volume (edema in ml) produced by the carrageenan is measured. Paw edema is calculated (3 hour volume minus zero time volume), and percent inhibition of edema is determined. Unpaired Student's t-test is used to determine statistical significance.

Usually IC50 stands for the concentration that inhibits the measured activity by half. By % Inhibition is commonly meant the percentage by which the read-out fell short of the control. A low value points to little suppression. As for `O=C(O)Cc1cc(OCc2ccc3ccccc3n2)ccc1Nc1c(Cl)cccc1Cl` [Example 2, 2-[(2,6-Dichlorophenyl)amino]-5-(2-quinolylmethoxy)benzene acetic acid], the IC50 in experiment [1] is 10 nM; in experiment [2] (rat PMN, acetic acid), about 10 µM. The “% Inhibition at a concentration of 10 μM, Rat Peritonitis Fluid” value in experiment [3] came out at 69.7%. Moreover, in the experiment with Pancreatic Lipase PLA2, the “% Inhibition at a concentration of 10 μM, Pancreatic Lipase” value amounted to 90.1%. Moreover, the inhibition at 10 µM on Bee Venom PLA2 is 38.7%. Moreover, the “% Inhibition LTC4” value with LTC4 (50 mg/kg p.o.) was determined as 47%; in the experiment with LTC4 (100 mg/kg p.o.), 78%. In addition, the results for the “% Inhibition” value in the experiment on carrageenan paw edema (25 mg/kg peroral), with carrageenan paw edema (50 mg/kg peroral) and with carrageenan paw edema (100 mg/kg peroral) were 63%, 58% and 66%, respectively.
As usually defined, the ED50 is the midpoint of the dose-response relation. Low readings indicate an effect at a small dose, high ones a need for a large dose. Regarding `O=C(O)Cc1ccccc1Nc1c(Cl)cccc1Cl` [diclofenac, reference compound], in experiment [2] (Rattus norvegicus, Leukocyte), the IC50 came out at 0.03 µM. Further, the “% Inhibition” value in the experiment with carrageenan paw edema (0.5 mg/kg peroral) is on record as 15%; in the experiment with carrageenan paw edema (2.0 mg/kg peroral), 50%; in the experiment on carrageenan paw edema (8.0 mg/kg peroral), 75%. Also, in the experiment with carrageenan paw edema (Rattus norvegicus, po, 3 h), the 50% effect level (ED50) was put at a dose of 2.3 mg/kg.
